Measurements from the NIST ThermoML archive (doi:10.1021/je700140j).

Experiment: xn = mol fraction of the nth substance listed
Conditions: for mass density / viscosity: 100.8 kPa, Liquid; for surface tension liquid-gas: Ring tensiometer

OCCc1ccccc1 [2-phenylethanol] + CC(C)O
Conditions	mass density, 308.15 K [kg/m3]	mass density, 318.15 K [kg/m3]	surface tension liquid-gas, 318.15 K [mN/m]	viscosity, 308.15 K [mPa·s]	viscosity, 318.15 K [mPa·s]
x2 = 0	–	1000.98	38.35	–	5.232
x2 = 0.05	–	994.22	37.2	–	4.953
x2 = 0.1	–	986.78	36.13	–	4.645
x2 = 0.15	–	978.99	35.05	–	4.366
x2 = 0.2	–	970.82	33.97	–	4.103
x2 = 0.25	970.19	962.28	32.88	5.341	3.85
x2 = 0.3	961.31	953.36	31.8	4.969	3.6
x2 = 0.35	952.04	943.99	30.75	4.621	3.362
x2 = 0.4	942.3	934.2	29.7	4.286	3.132
x2 = 0.45	932.05	923.92	28.68	3.964	2.912
x2 = 0.5	921.29	913.06	27.68	3.67	2.713
x2 = 0.55	909.98	901.7	26.68	3.389	2.524
x2 = 0.6	898.08	889.7	25.7	3.124	2.342
x2 = 0.65	885.47	877.03	24.83	2.876	2.162
x2 = 0.7	872.12	863.6	24	2.634	1.989
x2 = 0.75	857.98	849.39	23.2	2.407	1.823
x2 = 0.8	842.99	834.3	22.45	2.201	1.665
x2 = 0.85	827.04	818.29	21.7	2.009	1.526
x2 = 0.9	810.09	801.28	20.97	1.859	1.415
x2 = 0.95	792	783.08	20.18	1.693	1.298
